Read-outs that look alike come from different tables or passages of the source.
How the values were obtained:
MST3(h) = molecular target: T1, MST3(h) (Homo sapiens, UniProt Q9Y6E0); assay: Kinase panel; type: biochemical
T1 construct: purchased Millipore KinaseProfiler

[1] = test system: AKT substrate phosphorylation in BT474; assay: Western analysis of AKT signaling; type: cell-based, human; conditions: BT474, 1 h
Experimental: Cells treated with DMSO or compounds for different duration were lysed using RIPA buffer (Teknova) containing protease and phosphatase inhibitors (Sigma Aldrich). Equal amounts of protein were resolved in 4–12% SDS-PAGE gels (Invitrogen), transferred onto 0.45 µm PVDF membrane (Invitrogen), and incubated with primary antibodies (1∶1000 dilution) overnight. Antibodies for AKT, phospho-AKT (Ser473 and Thr308), phospho-FOXO (Thr24/32), phospho-MEK1/2 (Ser217/221) were purchased from Cell Signaling Technologies. Phospho-GSK3β (Ser9) antibody was from R&D Systems. PRAS40 and phospho-PRAS40 (Thr246) antibodies were obtained from Millipore. Phospho-ERK1/2 (Tyr204), ERK1/2, and phospho-Caspase 9 (Ser196) antibodies were purchased from Santa Cruz Biotechnologies. Tubulin antibodies were purchased from Sigma Aldrich. Following incubation with primary antibody, blots were washed and incubated with IRDye-680 goat-anti-mouse or IRDye-800CW goat-anti-rabbit antibodies (1; 10,000 dilution; LI-COR) for 1 h. Following thorough washing, blots were analyzed using an infrared imaging system (LI-COR).

BrSK1(h) = molecular target: T2, BrSK1(h) (Homo sapiens, UniProt Q8TDC3); assay: Kinase panel; type: biochemical
T2 construct: purchased Millipore KinaseProfiler
T2 sequence (Q8TDC3 1-778): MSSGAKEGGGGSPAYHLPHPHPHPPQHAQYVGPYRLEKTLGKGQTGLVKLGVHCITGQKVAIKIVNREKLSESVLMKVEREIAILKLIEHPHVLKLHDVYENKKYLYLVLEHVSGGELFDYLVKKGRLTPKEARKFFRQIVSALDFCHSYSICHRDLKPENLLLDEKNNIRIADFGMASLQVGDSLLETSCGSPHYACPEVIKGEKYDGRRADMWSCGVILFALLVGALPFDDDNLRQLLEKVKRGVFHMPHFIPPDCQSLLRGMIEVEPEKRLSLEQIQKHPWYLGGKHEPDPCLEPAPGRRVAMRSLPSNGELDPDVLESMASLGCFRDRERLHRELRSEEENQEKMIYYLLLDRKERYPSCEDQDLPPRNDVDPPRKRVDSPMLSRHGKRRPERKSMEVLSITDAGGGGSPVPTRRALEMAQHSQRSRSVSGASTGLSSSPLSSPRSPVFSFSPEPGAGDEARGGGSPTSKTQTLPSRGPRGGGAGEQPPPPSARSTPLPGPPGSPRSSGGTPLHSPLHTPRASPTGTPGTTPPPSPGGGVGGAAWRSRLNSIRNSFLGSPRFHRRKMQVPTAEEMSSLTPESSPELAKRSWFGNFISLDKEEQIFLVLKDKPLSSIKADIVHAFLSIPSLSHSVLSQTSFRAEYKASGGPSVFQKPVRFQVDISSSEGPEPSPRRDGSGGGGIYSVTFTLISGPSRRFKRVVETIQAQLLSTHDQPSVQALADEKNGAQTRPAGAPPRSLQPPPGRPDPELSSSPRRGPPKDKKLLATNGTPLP

SAPK4(h) = molecular target: T3, SAPK4(h) (Homo sapiens, UniProt O15264); assay: Kinase panel; type: biochemical
T3 construct: purchased Millipore KinaseProfiler
T3 sequence (O15264 1-365): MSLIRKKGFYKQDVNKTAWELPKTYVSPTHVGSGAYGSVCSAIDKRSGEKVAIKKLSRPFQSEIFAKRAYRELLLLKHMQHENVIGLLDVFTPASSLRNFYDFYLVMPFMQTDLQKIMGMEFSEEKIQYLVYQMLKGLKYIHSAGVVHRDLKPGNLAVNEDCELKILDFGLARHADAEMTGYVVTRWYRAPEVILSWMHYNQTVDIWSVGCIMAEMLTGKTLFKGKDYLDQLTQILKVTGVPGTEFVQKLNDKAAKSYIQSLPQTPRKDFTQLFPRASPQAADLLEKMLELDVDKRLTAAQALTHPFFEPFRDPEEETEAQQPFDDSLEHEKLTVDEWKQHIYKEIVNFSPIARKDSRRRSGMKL

TAO1(h) = molecular target: T4, TAO1(h) (Homo sapiens, UniProt Q7L7X3); assay: Kinase panel; type: biochemical
T4 construct: purchased Millipore KinaseProfiler
T4 sequence (Q7L7X3 1-1001): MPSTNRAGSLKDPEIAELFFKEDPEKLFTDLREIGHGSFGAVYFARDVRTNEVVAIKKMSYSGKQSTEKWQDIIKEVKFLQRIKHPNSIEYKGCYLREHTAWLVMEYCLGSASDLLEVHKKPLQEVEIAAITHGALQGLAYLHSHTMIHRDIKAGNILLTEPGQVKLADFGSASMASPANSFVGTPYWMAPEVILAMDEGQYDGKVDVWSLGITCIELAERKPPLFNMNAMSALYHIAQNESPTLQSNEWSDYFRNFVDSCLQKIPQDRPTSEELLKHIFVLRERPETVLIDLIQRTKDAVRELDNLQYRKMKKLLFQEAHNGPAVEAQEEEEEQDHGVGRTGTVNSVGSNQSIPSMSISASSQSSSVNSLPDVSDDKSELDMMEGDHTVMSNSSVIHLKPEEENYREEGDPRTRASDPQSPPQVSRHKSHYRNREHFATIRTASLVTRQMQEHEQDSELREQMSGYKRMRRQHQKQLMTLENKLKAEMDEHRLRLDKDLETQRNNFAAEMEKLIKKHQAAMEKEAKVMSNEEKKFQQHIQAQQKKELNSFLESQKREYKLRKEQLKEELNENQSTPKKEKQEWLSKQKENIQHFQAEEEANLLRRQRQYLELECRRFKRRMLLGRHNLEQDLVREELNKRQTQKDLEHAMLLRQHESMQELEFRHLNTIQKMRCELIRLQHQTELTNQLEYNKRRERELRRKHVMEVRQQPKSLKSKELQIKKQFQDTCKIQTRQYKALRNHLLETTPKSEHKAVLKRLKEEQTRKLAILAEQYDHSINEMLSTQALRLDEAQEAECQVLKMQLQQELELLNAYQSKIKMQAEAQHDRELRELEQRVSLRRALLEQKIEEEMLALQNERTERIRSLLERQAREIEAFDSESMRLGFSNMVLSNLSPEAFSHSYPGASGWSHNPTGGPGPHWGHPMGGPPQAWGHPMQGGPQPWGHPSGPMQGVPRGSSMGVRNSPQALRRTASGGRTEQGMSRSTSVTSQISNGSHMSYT

Arg(h) = molecular target: T5, Arg(h) (Homo sapiens, UniProt P42684); assay: Kinase panel; type: biochemical
T5 construct: purchased Millipore KinaseProfiler

CDK2/cyclinE(h) = molecular target: T6, CDK2/cyclinE(h) (Homo sapiens, UniProt P24941); assay: Kinase panel; type: biochemical
T6 construct: purchased Millipore KinaseProfiler

T5 sequence (P42684 whole entry): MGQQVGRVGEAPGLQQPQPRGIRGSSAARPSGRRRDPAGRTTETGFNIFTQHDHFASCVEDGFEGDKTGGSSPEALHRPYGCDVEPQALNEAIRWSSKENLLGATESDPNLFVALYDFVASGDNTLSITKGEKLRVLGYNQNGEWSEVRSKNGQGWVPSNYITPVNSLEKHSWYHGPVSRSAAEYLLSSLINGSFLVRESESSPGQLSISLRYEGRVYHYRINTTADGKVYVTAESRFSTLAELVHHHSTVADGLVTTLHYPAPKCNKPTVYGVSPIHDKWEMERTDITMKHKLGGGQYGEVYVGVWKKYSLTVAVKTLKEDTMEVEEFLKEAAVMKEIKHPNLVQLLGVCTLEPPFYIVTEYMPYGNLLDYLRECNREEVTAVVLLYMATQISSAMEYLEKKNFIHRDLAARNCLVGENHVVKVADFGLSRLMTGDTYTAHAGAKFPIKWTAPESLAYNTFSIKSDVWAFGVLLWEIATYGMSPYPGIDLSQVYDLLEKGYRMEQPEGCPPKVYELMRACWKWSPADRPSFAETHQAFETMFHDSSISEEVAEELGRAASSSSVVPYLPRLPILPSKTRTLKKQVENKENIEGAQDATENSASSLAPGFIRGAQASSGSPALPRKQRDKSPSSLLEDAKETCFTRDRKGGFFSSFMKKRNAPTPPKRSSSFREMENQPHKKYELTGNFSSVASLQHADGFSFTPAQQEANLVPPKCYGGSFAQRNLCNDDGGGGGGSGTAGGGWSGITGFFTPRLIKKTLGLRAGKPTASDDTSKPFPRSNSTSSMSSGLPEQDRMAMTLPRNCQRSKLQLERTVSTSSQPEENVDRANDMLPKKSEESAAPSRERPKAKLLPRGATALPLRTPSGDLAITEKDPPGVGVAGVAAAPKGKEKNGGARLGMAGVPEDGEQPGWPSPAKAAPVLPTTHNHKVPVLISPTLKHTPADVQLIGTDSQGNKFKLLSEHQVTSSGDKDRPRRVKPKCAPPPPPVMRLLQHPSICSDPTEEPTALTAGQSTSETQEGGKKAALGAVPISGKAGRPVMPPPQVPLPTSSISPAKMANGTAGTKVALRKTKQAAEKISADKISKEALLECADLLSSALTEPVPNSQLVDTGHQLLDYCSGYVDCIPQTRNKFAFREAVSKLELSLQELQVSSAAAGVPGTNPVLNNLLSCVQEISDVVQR
T1 sequence (Q9Y6E0 whole entry): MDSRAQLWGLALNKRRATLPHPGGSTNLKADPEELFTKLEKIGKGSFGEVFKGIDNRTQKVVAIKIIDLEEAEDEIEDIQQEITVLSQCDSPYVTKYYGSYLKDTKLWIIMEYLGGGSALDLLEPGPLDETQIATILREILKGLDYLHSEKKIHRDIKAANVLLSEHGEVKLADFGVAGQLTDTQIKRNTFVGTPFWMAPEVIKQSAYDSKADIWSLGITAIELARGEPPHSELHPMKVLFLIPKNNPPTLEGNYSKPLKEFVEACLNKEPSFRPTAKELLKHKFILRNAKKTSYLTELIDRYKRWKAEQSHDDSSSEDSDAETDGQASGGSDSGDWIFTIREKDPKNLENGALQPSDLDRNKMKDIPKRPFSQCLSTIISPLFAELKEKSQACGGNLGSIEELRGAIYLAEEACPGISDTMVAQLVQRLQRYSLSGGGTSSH

Cn1ncc(Cl)c1-c1cc(C(=O)N[C@H](CN)Cc2cccc(F)c2)sc1Cl [GSK2110183]
inhibition at 0.5 µM (MST3(h)): 14% | inhibition at 10 µM (MST3(h)): 50% | AKT substrate phosphorylation levels (GSK3β, PRAS40, FOXO, Caspase 9) [1]: concentration-dependent effect | inhibition at 0.5 µM (BrSK1(h)): -3% | inhibition at 10 µM (BrSK1(h)): 10% | inhibition at 0.5 µM (SAPK4(h)): 3% | inhibition at 10 µM (SAPK4(h)): 64% | inhibition at 0.5 µM (TAO1(h)): 15% | inhibition at 10 µM (TAO1(h)): 49% | inhibition at 0.5 µM (Arg(h)): -3% | inhibition at 10 µM (Arg(h)): -1% | inhibition at 0.5 µM (CDK2/cyclinE(h)): 3% | inhibition at 10 µM (CDK2/cyclinE(h)): 12%

Cn1ncc(Cl)c1-c1cc(C(=O)N[C@H](CN)Cc2ccc(F)c(F)c2)oc1Cl [GSK2141795]
inhibition at 0.5 µM (MST3(h); 0.5 µM, read-out: % Inhibition): 10% | inhibition at 10 µM (MST3(h); 10 µM, read-out: % Inhibition): 63% | AKT substrate phosphorylation levels (GSK3β, PRAS40, FOXO, Caspase 9) [1]: concentration-dependent effect | inhibition at 0.5 µM (BrSK1(h); 0.5 µM, read-out: % Inhibition): -2% | inhibition at 10 µM (BrSK1(h); 10 µM, read-out: % Inhibition): 7% | inhibition at 0.5 µM (SAPK4(h); 0.5 µM, read-out: % Inhibition): -9% | inhibition at 10 µM (SAPK4(h); 10 µM, read-out: % Inhibition): 54% | inhibition at 0.5 µM (TAO1(h); 0.5 µM, read-out: % Inhibition): -4% | inhibition at 10 µM (TAO1(h); 10 µM, read-out: % Inhibition): 24% | inhibition at 0.5 µM (Arg(h); 0.5 µM, read-out: % Inhibition): -13% | inhibition at 10 µM (Arg(h); 10 µM, read-out: % Inhibition): -17% | inhibition at 0.5 µM (CDK2/cyclinE(h); 0.5 µM, read-out: % Inhibition): -2% | inhibition at 10 µM (CDK2/cyclinE(h); 10 µM, read-out: % Inhibition): 29%

Source: article PMC4076210, “Discovery of Novel AKT Inhibitors with Enhanced Anti-Tumor Effects in Combination with the MEK Inhibitor” (PLoS ONE, 2014)
